# Data as given in ChEMBL document CHEMBL3885881, “DrugMatrix”.
# Species on record: Rattus norvegicus
# Experiment: DrugMatrix - Regimen: Daily Repeat
# Format: toxicity, organism-based, Sprague-Dawley
# Set-up: regimen Daily Repeat, gender Male, age 6-8 weeks
# Conditions: in vivo, po, route oral GAVAGE; for ABSOLUTE MONOCYTE / ABSOLUTE SEGMENTED NEUTROPHIL / BASOPHIL / EOSINOPHIL / ERYTHROCYTE COUNT / HEMATOCRIT / HEMOGLOBIN / LEUKOCYTE COUNT / LYMPHOCYTE / MEAN CORPUSCULAR HEMOGLOBIN / MEAN CORPUSCULAR HEMOGLOBIN CONCENTRATION / MEAN CORPUSCULAR VOLUME / MONOCYTE / NEUTROPHIL / NUCLEATED RED BLOOD CELLS / PLATELET COUNT / ABSOLUTE BASOPHIL / ABSOLUTE EOSINOPHIL / ABSOLUTE LYMPHOCYTE: tissue Blood; for ALANINE AMINOTRANSFERASE / ALBUMIN / ALKALINE PHOSPHATASE / ASPARTATE AMINOTRANSFERASE / BLOOD UREA NITROGEN / CARBON DIOXIDE / CHLORIDE / CHOLESTEROL / CREATINE PHOSPHOKINASE / CREATININE / GLUCOSE / LACTATE DEHYDROGENASE / LIPASE / PHOSPHORUS / POTASSIUM / SODIUM / TOTAL BILIRUBIN / TOTAL PROTEIN / URIC ACID: tissue Plasma
# [1] = 20 mg/kg, 120 h, dose level Low, time 5 day, […]
# [2] = 54 mg/kg, 72 h, dose level M1, time 3 day, vehicle 100 % WATER
# [3] = 54 mg/kg, 120 h, dose level M1, time 5 day, vehicle 100 % WATER
# [4] = 160 mg/kg, 72 h, dose level High, time 3 day, […]
# [5] = 160 mg/kg, 120 h, dose level High, time 5 day, […]
smiles,measurement,setting,value
Cn1cnc([N+](=O)[O-])c1Sc1ncnc2nc[nH]c12 [AZATHIOPRINE],ABSOLUTE MONOCYTE,[1],73.67 CELLS/uL
same,ABSOLUTE SEGMENTED NEUTROPHIL,[1],134 CELLS/uL
same,BASOPHIL,[1],0%
same,EOSINOPHIL,[1],0%
same,ERYTHROCYTE COUNT,[1],5 x10E6/uL
same,HEMATOCRIT,[1],31.27%
same,HEMOGLOBIN,[1],12.3 G/DL
same,LEUKOCYTE COUNT,[1],5.33 x10E3/uL
same,LYMPHOCYTE,[1],96%
same,MEAN CORPUSCULAR HEMOGLOBIN,[1],24.53 pg
same,MEAN CORPUSCULAR HEMOGLOBIN CONCENTRATION,[1],39.33 G/DL
same,MEAN CORPUSCULAR VOLUME,[1],62.43 fL
same,MONOCYTE,[1],1.33%
same,NEUTROPHIL,[1],2.67%
same,NUCLEATED RED BLOOD CELLS,[1],0 /100WBC
same,PLATELET COUNT,[1],1346.67 x10E3/uL
same,ALANINE AMINOTRANSFERASE,[1],45.33 u/L
same,ALBUMIN,[1],4.33 G/DL
same,ALKALINE PHOSPHATASE,[1],305 u/L
same,ASPARTATE AMINOTRANSFERASE,[1],83 u/L
same,BLOOD UREA NITROGEN,[1],14 mg/dL
same,CARBON DIOXIDE,[1],29.33 mmol/L
same,CHLORIDE,[1],104.33 MEQ/L
same,CHOLESTEROL,[1],75 mg/dL
same,CREATINE PHOSPHOKINASE,[1],212.33 u/L
same,CREATININE,[1],0.4 mg/dL
same,GLUCOSE,[1],152.67 mg/dL
same,LACTATE DEHYDROGENASE,[1],68 u/L
same,LIPASE,[1],13 u/L
same,PHOSPHORUS,[1],10.93 mg/dL
same,POTASSIUM,[1],5.68 MEQ/L
same,SODIUM,[1],146.9 MEQ/L
same,TOTAL BILIRUBIN,[1],0.1 mg/dL
same,TOTAL PROTEIN,[1],6.67 G/DL
same,URIC ACID,[1],0.33 mg/dL
same,ABSOLUTE BASOPHIL,[2],0 CELLS/uL
same,ABSOLUTE EOSINOPHIL,[2],0 CELLS/uL
same,ABSOLUTE LYMPHOCYTE,[2],10600.67 CELLS/uL
same,ABSOLUTE MONOCYTE,[2],39.33 CELLS/uL
same,ABSOLUTE SEGMENTED NEUTROPHIL,[2],326.67 CELLS/uL
same,BASOPHIL,[2],0%
same,EOSINOPHIL,[2],0%
same,ERYTHROCYTE COUNT,[2],5.04 x10E6/uL
same,HEMATOCRIT,[2],31.57%
same,HEMOGLOBIN,[2],12.03 G/DL
same,LEUKOCYTE COUNT,[2],10.97 x10E3/uL
same,LYMPHOCYTE,[2],96.67%
same,MEAN CORPUSCULAR HEMOGLOBIN,[2],23.9 pg
same,MEAN CORPUSCULAR HEMOGLOBIN CONCENTRATION,[2],38.13 G/DL
same,MEAN CORPUSCULAR VOLUME,[2],62.73 fL
same,MONOCYTE,[2],0.33%
same,NEUTROPHIL,[2],3%
same,NUCLEATED RED BLOOD CELLS,[2],0 /100WBC
same,PLATELET COUNT,[2],1322.33 x10E3/uL
same,ALANINE AMINOTRANSFERASE,[2],39.67 u/L
same,ALBUMIN,[2],4.23 G/DL
same,ALKALINE PHOSPHATASE,[2],313.33 u/L
same,ASPARTATE AMINOTRANSFERASE,[2],66 u/L
same,BLOOD UREA NITROGEN,[2],10.67 mg/dL
same,CARBON DIOXIDE,[2],28.67 mmol/L
same,CHLORIDE,[2],100 MEQ/L
same,CHOLESTEROL,[2],81.67 mg/dL
same,CREATINE PHOSPHOKINASE,[2],160.33 u/L
same,CREATININE,[2],0.25 mg/dL
same,GLUCOSE,[2],157.33 mg/dL
same,LACTATE DEHYDROGENASE,[2],114.33 u/L
same,LIPASE,[2],13 u/L
same,PHOSPHORUS,[2],10.63 mg/dL
same,POTASSIUM,[2],6.03 MEQ/L
same,SODIUM,[2],141.9 MEQ/L
same,TOTAL BILIRUBIN,[2],0.13 mg/dL
same,TOTAL PROTEIN,[2],5.97 G/DL
same,URIC ACID,[2],1.17 mg/dL
same,ABSOLUTE BASOPHIL,[3],0 CELLS/uL
same,ABSOLUTE EOSINOPHIL,[3],0 CELLS/uL
same,ABSOLUTE LYMPHOCYTE,[3],4380.67 CELLS/uL
same,ABSOLUTE MONOCYTE,[3],0 CELLS/uL
same,ABSOLUTE SEGMENTED NEUTROPHIL,[3],119.33 CELLS/uL
same,BASOPHIL,[3],0%
same,EOSINOPHIL,[3],0%
same,ERYTHROCYTE COUNT,[3],4.85 x10E6/uL
same,HEMATOCRIT,[3],31.6%
same,HEMOGLOBIN,[3],12.13 G/DL
same,LEUKOCYTE COUNT,[3],4.5 x10E3/uL
same,LYMPHOCYTE,[3],97.33%
same,MEAN CORPUSCULAR HEMOGLOBIN,[3],25 pg
same,MEAN CORPUSCULAR HEMOGLOBIN CONCENTRATION,[3],38.37 G/DL
same,MEAN CORPUSCULAR VOLUME,[3],65.07 fL
same,MONOCYTE,[3],0%
same,NEUTROPHIL,[3],2.67%
same,NUCLEATED RED BLOOD CELLS,[3],0 /100WBC
same,PLATELET COUNT,[3],1116.33 x10E3/uL
same,ALANINE AMINOTRANSFERASE,[3],29.67 u/L
same,ALBUMIN,[3],4.6 G/DL
same,ALKALINE PHOSPHATASE,[3],184.33 u/L
same,ASPARTATE AMINOTRANSFERASE,[3],65.33 u/L
same,BLOOD UREA NITROGEN,[3],14 mg/dL
same,CARBON DIOXIDE,[3],33 mmol/L
same,CHLORIDE,[3],96.33 MEQ/L
same,CHOLESTEROL,[3],91.33 mg/dL
same,CREATINE PHOSPHOKINASE,[3],188.33 u/L
same,CREATININE,[3],0.26 mg/dL
same,GLUCOSE,[3],159.67 mg/dL
same,LACTATE DEHYDROGENASE,[3],98.33 u/L
same,LIPASE,[3],14 u/L
same,PHOSPHORUS,[3],9.43 mg/dL
same,POTASSIUM,[3],5.71 MEQ/L
same,SODIUM,[3],143.23 MEQ/L
same,TOTAL BILIRUBIN,[3],0.13 mg/dL
same,TOTAL PROTEIN,[3],6.97 G/DL
same,URIC ACID,[3],0.23 mg/dL
same,ABSOLUTE BASOPHIL,[4],0 CELLS/uL
same,ABSOLUTE EOSINOPHIL,[4],0 CELLS/uL
same,ABSOLUTE LYMPHOCYTE,[4],4093.67 CELLS/uL
same,ABSOLUTE MONOCYTE,[4],37.33 CELLS/uL
same,ABSOLUTE SEGMENTED NEUTROPHIL,[4],535.67 CELLS/uL
same,BASOPHIL,[4],0%
same,EOSINOPHIL,[4],0%
same,ERYTHROCYTE COUNT,[4],5.12 x10E6/uL
same,HEMATOCRIT,[4],34.5%
same,HEMOGLOBIN,[4],13.07 G/DL
same,LEUKOCYTE COUNT,[4],4.67 x10E3/uL
same,LYMPHOCYTE,[4],87%
same,MEAN CORPUSCULAR HEMOGLOBIN,[4],25.6 pg
same,MEAN CORPUSCULAR HEMOGLOBIN CONCENTRATION,[4],37.87 G/DL
same,MEAN CORPUSCULAR VOLUME,[4],67.47 fL
same,MONOCYTE,[4],0.67%
same,NEUTROPHIL,[4],12.33%
same,NUCLEATED RED BLOOD CELLS,[4],0 /100WBC
same,PLATELET COUNT,[4],1028 x10E3/uL
same,ALANINE AMINOTRANSFERASE,[4],39.33 u/L
same,ALBUMIN,[4],3.87 G/DL
same,ALKALINE PHOSPHATASE,[4],207.67 u/L
same,ASPARTATE AMINOTRANSFERASE,[4],81.33 u/L
same,BLOOD UREA NITROGEN,[4],10.33 mg/dL
same,CARBON DIOXIDE,[4],36 mmol/L
same,CHLORIDE,[4],107.67 MEQ/L
same,CHOLESTEROL,[4],84.67 mg/dL
same,CREATINE PHOSPHOKINASE,[4],296.67 u/L
same,CREATININE,[4],0.13 mg/dL
same,GLUCOSE,[4],192.33 mg/dL
same,LACTATE DEHYDROGENASE,[4],87.67 u/L
same,LIPASE,[4],11.33 u/L
same,PHOSPHORUS,[4],7.6 mg/dL
same,POTASSIUM,[4],5.08 MEQ/L
same,SODIUM,[4],138.17 MEQ/L
same,TOTAL BILIRUBIN,[4],0.13 mg/dL
same,TOTAL PROTEIN,[4],5.63 G/DL
same,URIC ACID,[4],0.3 mg/dL
same,ABSOLUTE BASOPHIL,[5],0 CELLS/uL
same,ABSOLUTE EOSINOPHIL,[5],0 CELLS/uL
same,ABSOLUTE LYMPHOCYTE,[5],1710 CELLS/uL
same,ABSOLUTE MONOCYTE,[5],38 CELLS/uL
same,ABSOLUTE SEGMENTED NEUTROPHIL,[5],152 CELLS/uL
same,BASOPHIL,[5],0%
same,EOSINOPHIL,[5],0%
same,ERYTHROCYTE COUNT,[5],7.48 x10E6/uL
same,HEMATOCRIT,[5],45.7%
same,HEMOGLOBIN,[5],15.7 G/DL
same,LEUKOCYTE COUNT,[5],1.9 x10E3/uL
same,LYMPHOCYTE,[5],90%
same,MEAN CORPUSCULAR HEMOGLOBIN,[5],21 pg
same,MEAN CORPUSCULAR HEMOGLOBIN CONCENTRATION,[5],34.4 G/DL
same,MEAN CORPUSCULAR VOLUME,[5],61.1 fL
same,MONOCYTE,[5],2%
same,NEUTROPHIL,[5],8%
same,NUCLEATED RED BLOOD CELLS,[5],0 /100WBC
same,PLATELET COUNT,[5],666 x10E3/uL
same,ALANINE AMINOTRANSFERASE,[5],237 u/L
same,ALBUMIN,[5],2.8 G/DL
same,ALKALINE PHOSPHATASE,[5],281 u/L
same,ASPARTATE AMINOTRANSFERASE,[5],835 u/L
same,BLOOD UREA NITROGEN,[5],15 mg/dL
same,CARBON DIOXIDE,[5],36 mmol/L
same,CHLORIDE,[5],106 MEQ/L
same,CHOLESTEROL,[5],13 mg/dL
same,CREATINE PHOSPHOKINASE,[5],348 u/L
same,CREATININE,[5],0.38 mg/dL
same,GLUCOSE,[5],192 mg/dL
same,LACTATE DEHYDROGENASE,[5],280 u/L
same,LIPASE,[5],10 u/L
same,PHOSPHORUS,[5],6.3 mg/dL
same,POTASSIUM,[5],4.73 MEQ/L
same,SODIUM,[5],147 MEQ/L
same,TOTAL BILIRUBIN,[5],0.2 mg/dL
same,TOTAL PROTEIN,[5],3.4 G/DL
same,URIC ACID,[5],0.2 mg/dL
